Measurements published in publication PMC3433414, “Oral Administration of the Pimelic Diphenylamide HDAC Inhibitor HDACi 4b Is Unsuitable for Chronic Inhibition of HDAC Activity in the CNS In Vivo” (PLoS ONE, 2012).
pIC50: −log10 of the molar value.

Key:
[1] = target: T1, human recombinant HDAC1 (Homo sapiens, UniProt Q13547); assay: Two-step fluorogenic deacetylase assay, recombinant HDAC1; assay type: biochemical
T1 construct: purified recombinant human full length HDAC1 (cat# 50051); purchased BPS Bioscience (San Diego, CA) 50051
T1 sequence (Q13547 whole entry): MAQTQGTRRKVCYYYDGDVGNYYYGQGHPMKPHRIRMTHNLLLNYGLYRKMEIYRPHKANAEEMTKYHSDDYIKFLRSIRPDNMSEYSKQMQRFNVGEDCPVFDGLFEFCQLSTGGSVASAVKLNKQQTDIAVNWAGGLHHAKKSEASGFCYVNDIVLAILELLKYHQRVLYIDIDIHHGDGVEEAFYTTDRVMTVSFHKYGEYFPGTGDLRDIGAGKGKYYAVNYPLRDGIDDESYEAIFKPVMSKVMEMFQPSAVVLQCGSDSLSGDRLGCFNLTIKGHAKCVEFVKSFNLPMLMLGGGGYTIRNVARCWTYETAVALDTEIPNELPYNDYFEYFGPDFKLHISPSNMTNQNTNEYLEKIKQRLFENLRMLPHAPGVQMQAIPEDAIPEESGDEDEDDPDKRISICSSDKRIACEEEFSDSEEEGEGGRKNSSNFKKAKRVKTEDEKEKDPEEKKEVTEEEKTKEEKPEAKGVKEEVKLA
Excerpt: (§1) To assess the biochemical and cellular potency of 4b and its conversion products/metabolites, we utilized the two-step fluorogenic assay which measures the HDAC-mediated catalytic conversion of synthetic acetylated lysine substrates. In brief, on deacetylation of the substrates by HDAC activity, a protease site is unmasked which allows subsequent trypsin-mediated cleavage and release of the highly flourescent AMC molecules in a subsequent step of the assay. The substrates used were Lys_Ac_AMC (Bachem I-1875) for HDAC3 and (Ac)Arg-Gly-Lys(Ac) (Bachem I-1925) for HDAC1 and HDAC2. […] However, the relatively labile and sterically more demanding trifluoracetyl group is readily hydrolyzed by the catalytically less avid Class IIa enzymes, allowing measurement of Class IIa activity using the 2-step fluorogenic assay. […]
(§2) For evaluation of the class selectivity of the compounds, we assessed inhibition against purified recombinant human full length HDAC1 (cat# 50051), HDAC2 (cat# 50052), HDAC3-NcoR2 (cat# 50003) and HDAC8 (cat# 50008): as representative of Class I activity; catalytic domain HDAC4(αα 648–1057), HDAC5 (αα 657–1123; cat # 50005), HDAC7 (αα 518-end; cat # 50007) and HDAC9 (αα 604–1066; cat # 50009) activity: representing all Class IIa activity; and full length HDAC6 (cat#50006): representing Class IIb activity. […]

[2] = Stability in serum albumin; assay type: in vitro ADME
Description: Incubations of test compound (5 µM initial concentration, n = 2) were carried out with pooled mouse plasma or BSA (45 mg/mL in 0.1 M phosphate buffered saline). The incubations were performed at 37°C. Samples (50 µL) were obtained from the incubation at 0, 10, 30, 120, 240, 360 and 1440 min, and added to 150 µL of acetonitrile containing carbamazepine as analytical internal standard to terminate the reaction. Samples were centrifuged and the supernatant fractions analysed by LC-MS/MS.

[3] = system: M (non‐selective); assay: Cerep binding, antagonist radioligand; conditions: 10 μM
Excerpt: (§3) In addition to the HDAC profiling performed, we also queried 4b for any apparent potential off-target effects, which could complicate any finding of efficacy or adverse events in vivo due to ‘polypharmacy’. This was accomplished by screening against a ‘diversity panel’ of 72 binding and 29 enzyme assays, comprised of roughly equal numbers of selective central and peripheral therapeutically relevant targets (Cerep Diversity Profile). This panel included representative targets from diverse enzyme families, G protein coupled receptors, steroid nuclear receptors, voltage- and ligand-gated ion channels. While not totally inclusive, it is a useful tool for discovery compounds to assess their viability as proof of concept molecules to specifically query a particular target. 4b was initially screened at 10 µM in duplicate. The full set of results is provided as Table S1. […] This clean in vitro profile was considered acceptable to proceed to ADME and pharmacokinetic studies.

[4] = system: NMDA; assay: Cerep binding, antagonist radioligand; conditions: 10 μM
Excerpt: as §3

[5] = system: Na+ channel (site 2); assay: Cerep binding, antagonist radioligand; conditions: 10 μM
Excerpt: as §3

[6] = system: PCP; assay: Cerep binding, antagonist radioligand; conditions: 10 μM
Excerpt: as §3

[7] = system: HDACs; assay: Biochemical HDAC assays (whole panel); design: species or system human; conditions: up to 50 µM
Excerpt: as §1, §2

[8] = target: T2, D1 (h) (Homo sapiens, UniProt P21728); assay: Cerep binding, antagonist radioligand; conditions: read-out: % inhibition of control specific binding
T2 construct: purchased Cerep (Diversity Profile)
T2 sequence (P21728 whole entry): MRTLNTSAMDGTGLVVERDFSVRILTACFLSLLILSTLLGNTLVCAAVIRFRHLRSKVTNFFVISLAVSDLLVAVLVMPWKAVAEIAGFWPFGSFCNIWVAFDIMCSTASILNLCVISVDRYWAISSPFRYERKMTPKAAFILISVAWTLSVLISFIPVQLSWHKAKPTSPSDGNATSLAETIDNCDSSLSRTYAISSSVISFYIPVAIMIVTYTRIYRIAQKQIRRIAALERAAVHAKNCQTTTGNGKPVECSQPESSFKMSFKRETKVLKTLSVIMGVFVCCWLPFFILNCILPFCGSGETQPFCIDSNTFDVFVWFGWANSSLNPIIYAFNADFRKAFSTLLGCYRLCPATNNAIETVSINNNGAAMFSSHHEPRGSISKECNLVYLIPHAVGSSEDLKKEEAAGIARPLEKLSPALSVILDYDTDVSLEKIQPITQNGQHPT
Excerpt: as §3

[9] = system: KATP channel; assay: Cerep binding, antagonist radioligand; conditions: 10 μM
Excerpt: as §3

[10] = system: opioid (non‐selective); assay: Cerep binding, antagonist radioligand; conditions: 10 μM
Excerpt: as §3

| inhibition at 10 µM [8] [%] | % inhibition of control specific binding [9] [%] | % inhibition of control specific binding [10] [%] | Structure (SMILES) | pIC50 [1] | stability in serum albumin incubations [2] | % inhibition of control specific binding [3] [%] | % inhibition of control specific binding [4] [%] | % inhibition of control specific binding [5] [%] | % inhibition of control specific binding [6] [%] | activity in the biochemical HDAC assays [7] |
| --- | --- | --- | --- | --- | --- | --- | --- | --- | --- | --- |
|  |  |  | Nc1ccccc1NC(=O)CCCCCC(=O)Nc1ccccc1 [Compound 4b] | 5.82 | stable | 13 | 1 | 7 | 15 |  |
| 27 | 5 | 40 | O=C(CCCCCc1nc2ccccc2[nH]1)Nc1ccccc1 [Compound C1, 6-(1-H-benzo[d]imidazol-2-yl)-N-phenylhexanamide] |  |  |  |  |  |  | no activity |
